Target: T1, hM1 (human Muscarinic receptor subtype 1) (Homo sapiens, UniProt P11229)
T1 construct: expressed in transfected cells; host or cells: CHO cells (Chinese hamster ovary cells, ATCC)
T1 sequence (P11229 1-460): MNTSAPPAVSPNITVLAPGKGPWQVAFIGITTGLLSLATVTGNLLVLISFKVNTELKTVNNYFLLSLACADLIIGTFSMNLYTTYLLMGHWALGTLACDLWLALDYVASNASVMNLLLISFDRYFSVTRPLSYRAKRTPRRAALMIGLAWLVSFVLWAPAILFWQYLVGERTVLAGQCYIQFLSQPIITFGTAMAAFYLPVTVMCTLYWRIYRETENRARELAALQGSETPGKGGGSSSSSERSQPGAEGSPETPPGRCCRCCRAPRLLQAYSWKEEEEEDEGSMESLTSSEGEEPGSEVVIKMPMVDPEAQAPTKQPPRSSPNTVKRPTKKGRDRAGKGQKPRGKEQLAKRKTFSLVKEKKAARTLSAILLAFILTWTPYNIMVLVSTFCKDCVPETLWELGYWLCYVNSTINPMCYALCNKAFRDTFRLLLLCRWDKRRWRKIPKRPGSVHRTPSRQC
Assay: Human M1 calcium mobilization FLIPR assay
Assay type: cell-based
Details: CHO cells expressing hM1, Ca2+ release
Method: Biological Evaluation Human M1, Rat M1, Human M3 and Human M5 Calcium Mobilization FLIPR™ Assay
The compound activity in the present invention (EC50 or IC50) was measured using a 384 plate-based imaging assay that monitors drug induced intracellular Ca^2+ release in whole cells. Activation of hM1 (human Muscarinic receptor subtype 1, gene bank access NM_000738), rM1 (rat Muscarinic receptor subtype 1, gene bank access NM_080773), hM3 (human Muscarinic receptor subtype 3, gene bank access NM_000740NM_000740) and hM5 (human Muscarinic receptor subtype 5, gene bank access NM_0121258), receptors expressed in CHO cells (Chinese hamster ovary cells, ATCC) was quantified in a Molecular Devices FLIPR II™ instrument as an increase in fluorescent signal. Inhibition of hM3 and hM5 by compounds was determined by the decrease in fluorescent signal in response to 20 nM carbachol activation.
CHO cells were plated in 384-black polylysine coated plate (Costar) at 8000 cells/well/50 μl for 24 hours or 4000 cells/well for 48 hours in a humidified incubator (5% CO2 and 37° C.) in DMEM/F12 medium without selection agent. Prior to the experiment the cell culture medium was removed from the plates by inversion. A loading solution of 30 μl of Hank's balanced salt solution, 10 mM Hepes and 2.5 mM Probenicid at Ph 7.4 (Cat no. 311-520-VL, Wisent) with 2 μM calcium indicator dye (FLUO-3AM, Molecular Probes F14202) was added to each well. Plates were incubated at 37° C. for 60 minutes prior to start the experiment. The incubation was terminated by washing the cells four times in assay buffer, leaving a residual 25 μl buffer per well. Cell plates were then transferred to the FLIPR, ready for compound additions.
The day of experiment, carbachol and compounds were diluted in three-fold concentration range (10 points serial dilution) for addition by FLIPR instrument. For all calcium assays, a baseline reading was taken for 30 seconds followed by the addition of 12.5 μl (25 μl for hM1 and rM1) of compounds, resulting in a total well volume of 37.5 μl (50 μl for hM1 and rM1). Data were collected every 1.6 seconds for 300 seconds. For hM3 and hM5 an additional 12.5 μl of carbachol (20 nM final) was added at 300 seconds. After this addition of carbachol (producing a final volume of 50 μl), the FLIPR continued to collect data every 2 seconds for 240 seconds. The fluorescence emission was read using filter 1 (emission 520-545 nm) by the FLIPR on board CCD camera.
Calcium mobilization output data were calculated as the maximal relative fluorescence unit (RFU) minus the minal value for both compound and agonist reading frame (except for hM1 and rM1 using only the maximal RFU). Data were analyzed using sigmoidal fits of a non-linear curve-fitting program (XLfit version 5.0.6 from ID Business Solutions Limited, Guildford, UK). All EC50 and IC50 values are reported as arithmetic means±standard error of mean of ‘n’ independent experiments.

| EC50 [µM] | SMILES |
| --- | --- |
| 0.0011 | CCOC(=O)N1CCC(N2CCC(N3C(=O)N[C@H]4CCCC[C@@H]43)CC2)CC1 |
| 0.0068 | O=C1CCCN1CCC(=O)N1CCC(N2CCC(N3C(=O)N[C@H]4CCCC[C@@H]43)CC2)CC1 |
| 0.046 | O=C(C1CC1)N1CCC(N2CCC(N3C(=O)N[C@@H]4CCCC[C@H]43)CC2)CC1 |
| 0.0092 | O=C1CCCN1CCC(=O)N1CCC(N2CCC(N3C(=O)N[C@@H]4CCCC[C@H]43)CC2)CC1 |
| 0.095 | O=C(C1CCCC1)N1CCC(N2CCC(N3C(=O)N[C@H]4CCCC[C@@H]43)CC2)CC1 |
| 0.0025 | O=C(OCCF)N1CCC(N2CCC(N3C(=O)N[C@H]4CCCC[C@@H]43)CC2)CC1 |

More lines, now with the values behind:

| SMILES | EC50 [µM] |
| --- | --- |
| CCOC(=O)N1CC[C@H](N2CCC(N3C(=O)N[C@H]4CCCC[C@@H]43)CC2)C1 | 0.005 |
| COc1ccccc1C(=O)N1CCC(N2CCC(N3C(=O)N[C@@H]4CCCC[C@H]43)CC2)CC1 | 0.2 |
| CC(C)OC(=O)N1CCC(N2CCC(N3C(=O)N[C@H]4CCCC[C@@H]43)CC2)CC1 | 0.0046 |
| CC(C)OC(=O)N1CCC(N2CCC(N3C(=O)N[C@@H]4CCCC[C@@H]43)CC2)CC1 | 0.015 |
| CN1C(=O)N(C2CCN(C3CCN(C(=O)C4CC4)CC3)CC2)[C@H]2CCCC[C@@H]21 | 0.094 |
| CC(C)OC(=O)N1CCC(N2CCC(N3C(=O)C[C@H]4CCCC[C@@H]43)CC2)CC1 | 0.014 |
